Laboratory results: the NIST ThermoML archive (doi:10.1016/j.jct.2019.04.020)
Numbers after ± are expanded uncertainties.

Details: Liquid, Closed cell (Static) method

Row | SMILES | vapor or sublimation pressure (293.15 K) [kPa] | vapor or sublimation pressure (303.15 K) [kPa] | vapor or sublimation pressure (313.15 K) [kPa] | vapor or sublimation pressure (323.14 K) [kPa]
1 | F/C=C/C(F)(F)F [trans-1,3,3,3-tetrafluoropropene] | 427.4 ± 5.1 | 577.6 ± 5.1 | 765.3 ± 5.2 | 997.8 ± 5.3
2 | FCC(F)(F)F [1,1,1,2-tetrafluoroethane] | 571.1 ± 5.1 | 771.4 ± 5.2 | 1018.1 ± 5.3 | 1316.9 ± 5.5
3 | FCF [difluoromethane] | 1473.2 ± 5.7 | 1926.7 ± 6.1 | 2476.3 ± 6.6 | 3142.2 ± 7.2
